In brackets after ≈: the same amount, converted by molar mass. Activity calls are given as the source filed them. The calls are words filed in the database; no cut-off is given here. Peptide text beside a SMILES is read from it.
How the values were obtained:
Staphylococcus aureus [1] = test: Additive antimicrobial activity against multi-drug resistant Staphylococcus aureus assessed as fractional inhibition concentration index in presence levofloxacin by microplate reader analysis; assay type: functional
Escherichia coli [2] = test: Antimicrobial activity against multi-drug resistant Escherichia coli assessed as reduction in bacterial growth in presence of NaCl; assay type: functional, organism-based
[3] = tested on: Staphylococcus epidermidis; test: Antimicrobial activity against multi-drug resistant Staphylococcus epidermidis assessed as reduction in bacterial growth by broth dilution method; assay type: functional
Escherichia coli [4] = test: Antibacterial activity against Escherichia coli ATCC 25922 infected in male Kunming mouse model assessed as reduction in bacterial load measured after 11 days; assay type: functional, organism-based; details: time 11.0 day
Escherichia coli [5] = test: Antibacterial activity against multidrug resistant Escherichia coli infected in male Kunming mouse model assessed as scabs thickening measured after 7 days by caliper method; assay type: functional, organism-based; details: time 7.0 day
Escherichia coli [6] = test: Antibiofilm activity in […] assessed as eradication of formed biofilm by measuring reduction in viable bacterial count measured after 12 hrs by confocal microscopy based analysis; assay type: functional, organism-based
L02 = test: Cytotoxicity against human LO2 cells at 2 to 256 uM measured after 24 hrs by CCK-8 method; assay type: toxicity, cell-based; details: l02, 24 h, dose 2-256 µM
Staphylococcus aureus [7] = test: Antimicrobial activity against multi-drug resistant Staphylococcus aureus assessed as reduction in bacterial growth by broth dilution method; assay type: functional
Escherichia coli [8] = test: Antibacterial activity against multidrug resistant Escherichia coli infected in male Kunming mouse model assessed as reduction in IL-6 expression by immunochemical analysis; assay type: functional, organism-based
BEAS-2B = test: Cytotoxicity against human BEAS-2B cells at 2 to 256 uM measured after 24 hrs by CCK-8 method; assay type: toxicity, cell-based; details: dose 2-256 µM
Escherichia coli [9] = test: Antibacterial activity against multidrug resistant Escherichia coli infected in male Kunming mouse model assessed as recovery of mouse weight measured after 11 days; assay type: functional, organism-based; details: time 11.0 day
Escherichia coli [10] = test: Bactericidal activity against multi-drug resistant Escherichia coli assessed as eradication of bacterial growth at 2 times MIC measured after 3 hrs by time-kill kinetic assay relative to control; assay type: functional
Cell membrane [11] = test: Disruption of cell membrane in multi-drug resistant Staphylococcus aureus assessed as appearance of ruptured cell membrane at 2 times MIC measured for 120 mins by transmission electron microscopy analysis; assay type: subcellular
Cell membrane [12] = test: Disruption of cell membrane in multi-drug resistant Escherichia coli assessed as increase in red fluorescence intensity of PI at 2 times MIC measured for 2 hrs by fluorescence confocal microscopic imaging based analysis; assay type: subcellular
Escherichia coli [13] = test: Antibiofilm activity against multi-drug resistant Escherichia coli at 0.5 times MIC measured after 24 hrs by crystal violet staining based analysis; assay type: functional, organism-based
Staphylococcus aureus [14] = test: Bactericidal activity against multi-drug resistant Staphylococcus aureus assessed as eradication of bacterial growth at 2 times MIC by time-kill kinetic assay; assay type: functional, organism-based; details: time 120-720 min
Escherichia coli [15] = test: Antibacterial activity against multidrug resistant Escherichia coli infected in male Kunming mouse model assessed as reduction in wound size measured after 3 to 5 days by caliper method; assay type: functional, organism-based; details: time 3-5 day
Escherichia coli [16] = test: Bactericidal activity against multi-drug resistant Escherichia coli assessed as eradication of bacterial growth at 2 times MIC by time-kill kinetic assay; assay type: functional, organism-based; details: time 120-720 min
Escherichia coli [17] = test: Antibacterial activity against multidrug resistant Escherichia coli infected in male Kunming mouse model assessed as wound healing measured after 11 days by caliper method relative to control; assay type: functional; details: time 11 day
Escherichia coli [18] = test: Antibacterial activity against Escherichia coli ATCC 25922 infected in male Kunming mouse model assessed as reduction in bacterial load measured after 11 days in presence of levofloxacin; assay type: functional, organism-based; details: time 11.0 day
Escherichia coli [19] = test: Antibacterial activity against multidrug resistant Escherichia coli infected in male Kunming mouse model assessed as recovery of mouse weight measured after 11 days in presence of levofloxacin; assay type: functional, organism-based; details: time 11.0 day
HEK-293T = test: Cytotoxicity against HEK293T cells at 2 to 256 uM measured after 24 hrs by CCK-8 method; assay type: toxicity, cell-based; details: human, dose 2-256 µM
Staphylococcus aureus [20] = test: Antibiofilm activity in methicillin-resistant Staphylococcus aureus assessed as eradication of formed biofilm by measuring reduction in viable bacterial count measured after 12 hrs by confocal microscopy based analysis; assay type: functional, organism-based
Staphylococcus aureus [21] = test: Bactericidal activity against multi-drug resistant Staphylococcus aureus assessed as eradication of bacterial growth at 2 times MIC measured after 3 hrs by time-kill kinetic assay relative to control; assay type: functional
Staphylococcus aureus [22] = test: Antimicrobial activity against multi-drug resistant Staphylococcus aureus assessed as reduction in bacterial growth at 2 times MIC measured after 1 hrs in presence of chymotrypsin by microplate reader based analysis; assay type: functional, organism-based
Escherichia coli [23] = test: Antimicrobial activity against multi-drug resistant Escherichia coli assessed as reduction in bacterial growth by broth dilution method; assay type: functional
Klebsiella pneumoniae = test: Antimicrobial activity against multi-drug resistant Klebsiella pneumoniae assessed as reduction in bacterial growth by broth dilution method; assay type: functional
Cell membrane [24] = test: Disruption of cell membrane in multi-drug resistant Escherichia coli assessed as appearance of cell shrinkage at 2 times MIC measured for 120 mins by transmission electron microscopy analysis; assay type: subcellular
Cell membrane [25] = test: Disruption of cell membrane in multi-drug resistant Escherichia coli assessed as appearance of ruptured cell membrane at 2 times MIC measured for 120 mins by transmission electron microscopy analysis; assay type: subcellular
Escherichia coli [26] = test: Antimicrobial activity against multi-drug resistant Escherichia coli assessed as reduction in bacterial growth at 2 times MIC measured after 1 hrs in presence of chymotrypsin by microplate reader based analysis; assay type: functional, organism-based

With CC[C@H](C)[C@H](NC(=O)[C@H](CCCCN)NC(=O)[C@@H](NC(=O)[C@H](CCCCN)NC(=O)[C@@H]1CCCN1C(=O)[C@H](Cc1c[nH]c2ccccc12)NC(=O)[C@H](Cc1c[nH]c2ccccc12)NC(=O)[C@H](Cc1c[nH]c2ccccc12)NC(=O)[C@@H]1CCCN1C(=O)[C@H](CCCCN)NC(=O)[C@@H](NC(=O)[C@H](CCCCN)NC(=O)[C@@H](NC(=O)[C@@H](N)CCCCN)[C@@H](C)CC)[C@@H](C)CC)[C@@H](C)CC)C(=O)N[C@@H](CCCCN)C(N)=O (H-KIKIKPWWWPKIKIK-NH2) the “fractional inhibitory concentration index (FICI)” value (Staphylococcus aureus [1]) was 0.75, the Activity (Escherichia coli [2]) was “Active” and the MIC [3] was 4 µM (≈ 7.97 µg/mL). For the same compound, the Activity (Escherichia coli [4]) was “Active”, the Activity (Escherichia coli [5]) was “Active” and the Activity (Escherichia coli [6]) was “Dose-dependent-effect”. For the same compound, the Activity (L02) was “Toxic”, the MIC (Staphylococcus aureus [7]) was 8 µM (≈ 15.9 µg/mL) and the Activity (Escherichia coli [8]) was “Active”. For the same compound, the Activity (BEAS-2B) was “Toxic”, the Activity (Escherichia coli [9]) was “Active” and the Activity (Escherichia coli [10]) was 100%. For the same compound, the Activity (Cell membrane [11]) was “Active”, the Activity (Cell membrane [12]) was “Active” and the Activity (Escherichia coli [13]) was “Active”. The Activity (Staphylococcus aureus [14]) was “Time-dependent-effect”, the Activity (Escherichia coli [15]) was “Active” and the Activity (Escherichia coli [16]) was “Time-dependent-effect”. For the same compound, the Activity (Escherichia coli [17]) was 100%, the Activity (Escherichia coli [18]) was “Active” and the Activity (Escherichia coli [19]) was “Active”. The Activity (HEK-293T) was “Toxic”, the Activity (Staphylococcus aureus [20]) was “Dose-dependent-effect” and the Activity (Staphylococcus aureus [21]) was 100%. The Activity (Staphylococcus aureus [22]) was “inactive”, the MIC (Escherichia coli [23]) was 4 µM (≈ 7.97 µg/mL) and the MIC (Klebsiella pneumoniae) was 4 µM (≈ 7.97 µg/mL). For the same compound, the Activity (Cell membrane [24]) was “Active”, the Activity (Cell membrane [25]) was “Active” and the Activity (Escherichia coli [26]) was “inactive”.

Reference: ChEMBL document CHEMBL6134890, “Terminally Symmetric β-Turn Peptides for Multidrug-Resistant Bacterial Infections” (J Med Chem, 2025)
